Columns and labels:
[1] = test system: TryS; design: method as in Torrie et al. 18; conditions: ref Torrie et al. 18; cited from earlier work
[2] = Thermodynamic aqueous solubility, shake-flask method and HPLC-UV; type: physicochemical; conditions: phosphate-buffered saline, aqueous buffer, thermodynamic from solid, PBS pH 7.4, 25°C, up to 72 h, HPLC-UV, logS of molar solubility [M]
Method: (§1) Phosphate-buffered saline pH 7.4 was prepared according to the European Pharmacopeia 10.4 by dissolving 2.38 g sodium monohydrogen phosphate dodecahydrate, 0.19 g potassium dihydrogen phosphate and 8.0 g sodium chloride in demineralised water (to a total volume of 1000 mL). The pH was adjusted to a value of 7.4 with hydrochloric acid. The buffer was filtered through a 0.45 μm membrane filter (Chromafil® Xtra PES-45/25) before use.
The thermodynamic aqueous solubility was determined by a miniaturised shake-flask method. […] A negative control with the buffer (400 μL) was incubated for every time point and measured likewise. After incubation for 24 h, 48 h and 72 h, the vials were checked for undissolved compound; then the filter plunger was punched into the vial for filtration. […] The calibration curve was obtained from at least three dilutions and five measuring points from a DMSO stock solution of the respective compound.

[3] = Kinetic aqueous solubility by nephelometry; type: physicochemical; conditions: phosphate-buffered saline, aqueous buffer, kinetic from dmso stock, PBS pH 7.4, 1% DMSO, 25°C, logS = decadic logarithm of molar solubility [M]
Method: as §1
The kinetic aqueous solubility was determined by nephelometry. The measurements were performed on the NEPHELOstar Plus, with accompanying software Omega 5.11 and MARS 3.20 (BMG LABTECH, Ortenberg, Germany). Generally, 2 dilution series of 1–2 weighed portions of each substance were measured. First, stock solutions of the compounds were prepared in DMSO. A series of dilutions in DMSO were prepared from one stock solution to obtain at least 3 concentrations below and 3 concentrations above the precipitation point in the measured series. The specific concentrations were usually measured as duplicates.
The 96-well plate (Corning UV transparent flat-bottom 96-well plate, Corning Incorporated, Kennenbunk, ME, USA) was inspected for contamination and scratches and measured without samples prior to the solubility measurement of the compounds. 198 μL of phosphate-buffered saline pH 7.4 was placed in a 96 well plate for each well to be measured. 2 μL of a DMSO solution was added and immediately mixed by moving the pipette plunger. This solution either contained no substance—and served as a blank for the measurement (3 wells)—or the respective DMSO dilution of the substance (2–4 wells). The concentration of the solvent DMSO in each measured solution was 1%. The concentration of the compound corresponds to a 1:100 dilution compared to the respective DMSO dilution. The well plate bottom was cleaned with a lint-free cloth and compressed air and inspected for impurities before measurement. After shaking at 500 rpm for 10 s (double orbital), the measurement was carried out in the nephelometer with the laser intensity set to 80% and beam focus of 2.5 mm at a temperature of 25°C.
The obtained measuring points, relative nephelometric units (RNU) per compound concentration, were used to model two straight lines: one straight line with constant low readings and slope → 0 characterises the concentration range where no precipitation has taken place yet; The other straight line has a steep slope and increase of the RNU per concentration and characterises the concentrations at which precipitation takes place in the respective sample vessels.
The evaluation was carried out by calculating the two straight lines and their point of intersection. Outliers and values in a saturation range for the kick-off curve (usually >800 kRNU) were not used to create the straight lines and are listed separately in the evaluation file. […] The x-value of the intersection of the two straight lines represents the kinetic solubility. The results of two dilution series are additionally indicated as range (in brackets). For measurements of 3 or more series, a mean value with standard deviation is provided. The logS value describes the decadic logarithm of the molar solubility: logS (molar solubility [M]).

[4] = test system: L. infantum amastigotes (intracellular, in J774.A1 macrophages); test: Viability assay for L. infantum amastigotes; type: cell-based; conditions: Leishmania infantum, J774.A1, 24 h, read-out: L. infantum amastigote viability [% at 20 μM]
How it was run: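 Luciferase-expressing L. infantum metacyclic promastigotes (MHOM/MA/67/ITMAP263) infected J774.A1 murine macrophages at 1:10 for 24 h at 37 °C, 5% CO2. After compound treatment, a further 24 h incubation followed. Percent amastigote viability, in triplicate, was normalised to host-cell density by a propidium iodide correction factor.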

[5] = target: T1, trypanothione synthetase of L. infantum (LiTryS) (Leishmania infantum, UniProt A4I2Z3); test: TryS activity screening assay on recombinant LiTryS; type: biochemical; conditions: read-out: LiTryS activity [% at 30 μM]
How it was run: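 N-His-tagged TryS from E. coli, purified by IMAC and SEC; end-point reaction with 150 μM ATP, 2 mM Spd, GSH 0.05 mM (TbTryS) or 0.25 mM (LiTryS), enzyme 3*10^−5 (TbTryS) or 2*10^−5 (LiTryS) μmol*min^-1*mL^-1. Stopped after 15 min with BIOMOL GREEN; A650 activity relative to blank-corrected DMSO control.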

[6] = test system: Crithidia fasciculata TryS (CfTryS); design: method as in ref 24–26 = [24]; 24 Stuhlmann F, Jäger T, Flohé L, Schinzer D, inventors. N 5 -substituted benzo[2,3]azepino[4,5- b ]indol-6-ones for treating tropical diseases. European Patent Office patent EP 1 757 607 A1. 2007 Feb || [25]; PMID 27070550; doi:10.1371/journal.pntd.0004617; 25 Benítez D , Medeiros A , Fiestas L , Panozzo-Zenere EA , Maiwald F , Prousis KC , et al . Identification of novel chemical scaffolds inhibiting trypanothione synthetase from pathogenic trypanosomat || [26]; PMID 32588679; doi:10.1080/14756366.2020.1780227; 26 Medeiros A , Benítez D , Korn RS , Ferreira VC , Barrera E , Carrión F , et al . Mechanistic and biological characterisation of novel N 5 -substituted paullones targeting the biosynthesis of trypan; conditions: cited from earlier work
[7] = target: T1, trypanothione synthetase of L. infantum (LiTryS); conditions: Fig 3, known paullones; cited from earlier work
[8] = test system: bloodstream form of T. b. brucei strain 427; design: method as in PMID 27070550; conditions: displayed for comparison, read-out: T. b. brucei (BS) [EC50; cited from earlier work
[9] = test system: LiTryS; design: method as in ref 25, 26 = [25]; PMID 27070550; doi:10.1371/journal.pntd.0004617; 25 Benítez D , Medeiros A , Fiestas L , Panozzo-Zenere EA , Maiwald F , Prousis KC , et al . Identification of novel chemical scaffolds inhibiting trypanothione synthetase from pathogenic trypanosomat || [26]; PMID 32588679; doi:10.1080/14756366.2020.1780227; 26 Medeiros A , Benítez D , Korn RS , Ferreira VC , Barrera E , Carrión F , et al . Mechanistic and biological characterisation of novel N 5 -substituted paullones targeting the biosynthesis of trypan; conditions: versus substrates Spd, Gsp, ATP, GSH; cited from earlier work
[10] = test system: trypanothione synthetase of T. b. brucei (TbTryS); design: method as in PMID 27070550; conditions: cited from earlier work

T1 sequence (A4I2Z3 entry or part of it): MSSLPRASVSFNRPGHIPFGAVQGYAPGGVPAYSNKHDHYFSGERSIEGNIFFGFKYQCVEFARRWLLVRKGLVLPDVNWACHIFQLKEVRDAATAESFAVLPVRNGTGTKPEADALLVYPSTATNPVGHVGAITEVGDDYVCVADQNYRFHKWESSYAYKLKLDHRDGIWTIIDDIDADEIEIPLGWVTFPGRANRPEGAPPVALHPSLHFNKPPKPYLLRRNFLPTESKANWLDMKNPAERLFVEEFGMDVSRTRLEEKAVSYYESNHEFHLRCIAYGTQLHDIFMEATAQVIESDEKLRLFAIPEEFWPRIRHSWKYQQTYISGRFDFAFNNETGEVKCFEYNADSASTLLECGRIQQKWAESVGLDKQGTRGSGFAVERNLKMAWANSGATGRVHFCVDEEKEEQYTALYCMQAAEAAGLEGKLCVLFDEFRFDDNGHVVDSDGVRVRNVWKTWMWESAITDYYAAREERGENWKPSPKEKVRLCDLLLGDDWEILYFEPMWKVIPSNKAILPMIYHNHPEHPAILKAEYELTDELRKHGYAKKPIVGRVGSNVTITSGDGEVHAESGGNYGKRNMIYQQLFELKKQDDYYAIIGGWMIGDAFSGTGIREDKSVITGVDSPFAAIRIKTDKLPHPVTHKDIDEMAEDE

Compound	solubility thermodynamic at 72 h [2]	solubility kinetic at 10 s [3]	viability at 20 µM [4]	activity at 30 µM [5]	further results
CN1CCN(CCCN2c3ccccc3Sc3ccc(Cl)cc32)CC1 [prochlorperazine]	–	–	–	–	mode of TryS inhibition [1]: Spd competitive behaviour
CC1(C)CCc2ccccc2N(CC(=O)NCCN2CCNCC2)C1=O.Cl.Cl [3d, 2-(3,3-Dimethyl-2-oxo-2,3,4,5-tetrahydro-1H-benzo[b]azepin-1-yl)-N-[2-(piperazin-1-yl)ethyl]acetamide dihydrochloride]	> 0.114 M	> 0.002 M	78.1 ± 14.4%	100 ± 5.1%	–
Cl.Cl.O=C(CN1C(=O)Cc2ccccc2-c2ccccc21)NCCN1CCNCC1 [4d, 2-(6-Oxo-6,7-dihydro-5H-dibenzo[b,d]azepin-5-yl)-N-[2-(piperazin-1-yl)ethyl]acetamide dihydrochloride]	> 0.0562 M	> 0.0002 M	89.5 ± 2.8%	99.5 ± 3.1%	–
CON=C1CCC(=O)N(CC(=O)N2CCCC2)c2ccccc21 (mixture of isomers) [5c, (E/Z)-5-(Methoxyimino)-1-[2-oxo-2-(pyrrolidin-1-yl)ethyl]-1,3,4,5-tetrahydro-2H-benzo[b]azepin-2-one]	0.0263 M	> 0.00398 M	–	86.9 ± 3.6%	–
CNCCNC(=O)CN1C(=O)Cc2c([nH]c3ccc(Br)cc23)-c2ccccc21 [1b]	–	–	–	–	CfTryS inhibition at 10 μM compound concentration [6]: 92%
O=C(CN1C(=O)CCCc2ccccc21)N1CCCC1 [2j, 1-[2-Oxo-2-(pyrrolidin-1-yl)ethyl]-1,3,4,5-tetrahydro-2H-benzo[b]-azepin-2-one]	> 0.049 M	> 0.00398 M	–	100 ± 6.6%	–
NCCNC(=O)CN1C(=O)Cc2c([nH]c3ccc(Br)cc23)-c2ccc(Cl)cc21 [1d]	–	–	–	–	IC50 [7]: 0.3 µM
CNCCNC(=O)CN1C(=O)Cc2c([nH]c3ccc(Br)cc23)-c2ccc(Cl)cc21 [1c]	–	–	–	–	EC50 [8]: 4.3 ± 0.7 µM; inhibition mechanism on LiTryS [9]: competitive to Spd and Gsp, and uncompetitive to ATP and GSH; TbTryS activity [% at 30 μM] ([10]; 30 μM, displayed for comparison): 41.0 ± 6.0%; IC50 ([10]; used as inhibition control, read-out: concentration that inhibited 50% TryS activity (TbTryS)): 30 µM
Cl.Cl.O=C(CN1C(=O)CCCc2ccccc21)NCCN1CCNCC1 [2o, 2-(2-Oxo-2,3,4,5-tetrahydro-1H-benzo[b]azepin-1-yl)-N-[2-(piperazin-1-yl)ethyl]acetamide dihydrochloride]	> 0.248 M	> 0.001 M	98.4 ± 11.8%	98.8 ± 18.7%	–

Source: article PMC10688702, “The indole motif is essential for the antitrypanosomal activity of N^5-substituted paullones” (PLOS ONE, 2023)
